Results reported in the NIST ThermoML archive (doi:10.1021/acs.jced.5b00623).
“And” between values parts separate entries of the source, which are not always exact repeats. Equal values may be shown once. Numbers after ± are expanded uncertainties.

Details: for mass density: Buoyancy - hydrostatic balance with magnetic suspension - two sinkers; for vapor or sublimation pressure: Closed cell (Static) method; for speed of sound: Spherical resonator

O=C(C(F)(F)C(F)(F)F)C(F)(C(F)(F)F)C(F)(F)F [dodecafluoro-2-methylpentan-3-one]
mass density (400.01 K, 16056 kPa, Liquid): 1413.68 ± 0.19 kg/m3
mass density (400.01 K, 24343 kPa, Liquid): 1465.04 ± 0.2 kg/m3
vapor or sublimation pressure (400.01 K, Liquid): 826 ± 2 kPa
speed of sound (400.05 K, 54.88 kPa, Gas): 102.64 ± 0.2 m/s
speed of sound (400.05 K, 54.92 kPa, Gas): 102.64 ± 0.2 m/s
speed of sound (400.05 K, 154.66 kPa, Gas): 99.83 ± 0.2 m/s
speed of sound (400.05 K, 252.99 kPa, Gas): 96.94 ± 0.2 m/s
speed of sound (400.05 K, 354.19 kPa, Gas): 93.75 ± 0.19 m/s
speed of sound (400.05 K, 451.42 kPa, Gas): 90.4 ± 0.19 m/s
speed of sound (400.05 K, 554.73 kPa, Gas): 86.45 ± 0.18 m/s
speed of sound (400.05 K, 667.8 kPa, Gas): 81.52 ± 0.17 m/s
mass density (402 K, 14323 kPa, Liquid): 1395.32 ± 0.18 kg/m3
mass density (410.01 K, 16854 kPa, Liquid): 1394.24 ± 0.19 kg/m3
vapor or sublimation pressure (410.02 K, Liquid): 1016 ± 2.2 kPa
vapor or sublimation pressure (410.03 K, Liquid): 1014.3 ± 2.2 kPa
mass density (420 K, 19987 kPa, Liquid): 1392.85 ± 0.19 kg/m3
mass density (420.02 K, 6075.7 kPa, Liquid): 1241.69 ± 0.17 kg/m3
vapor or sublimation pressure (420.02 K, Liquid): 1238.2 ± 2.5 kPa and 1238.3 ± 2.5 kPa
speed of sound (425.04 K, 60.31 kPa, Gas): 105.94 ± 0.21 m/s
speed of sound (425.04 K, 144.61 kPa, Gas): 104 ± 0.21 m/s
speed of sound (425.04 K, 258 kPa, Gas): 101.36 ± 0.2 m/s
speed of sound (425.04 K, 399.11 kPa, Gas): 97.86 ± 0.2 m/s
speed of sound (425.04 K, 546.05 kPa, Gas): 93.91 ± 0.19 m/s
speed of sound (425.04 K, 696.35 kPa, Gas): 89.45 ± 0.19 m/s
speed of sound (425.04 K, 845.73 kPa, Gas): 84.47 ± 0.18 m/s
speed of sound (425.04 K, 951.86 kPa, Gas): 80.49 ± 0.17 m/s
speed of sound (425.04 K, 1061.7 kPa, Gas): 75.84 ± 0.17 m/s
mass density (429.99 K, 8117.7 kPa, Liquid): 1240.57 ± 0.17 kg/m3
mass density (430.02 K, 23113 kPa, Liquid): 1391.48 ± 0.19 kg/m3
mass density (440 K, 10172 kPa, Liquid): 1239.42 ± 0.17 kg/m3
mass density (440.01 K, 26214 kPa, Liquid): 1390.14 ± 0.2 kg/m3
speed of sound (449.97 K, 1492 kPa, Gas): 74.05 ± 0.17 m/s
speed of sound (449.98 K, 99.8 kPa, Gas): 108.43 ± 0.21 m/s
speed of sound (449.98 K, 296.98 kPa, Gas): 104.72 ± 0.21 m/s
speed of sound (449.98 K, 499.37 kPa, Gas): 100.64 ± 0.2 m/s
speed of sound (449.98 K, 701.04 kPa, Gas): 96.26 ± 0.2 m/s
speed of sound (449.98 K, 901.63 kPa, Gas): 91.5 ± 0.19 m/s
speed of sound (449.98 K, 1104.8 kPa, Gas): 86.19 ± 0.18 m/s
speed of sound (449.98 K, 1292.1 kPa, Gas): 80.71 ± 0.17 m/s
speed of sound (449.98 K, 1680.8 kPa, Gas): 66.68 ± 0.15 m/s
mass density (450 K, 12226 kPa, Gas): 1238.27 ± 0.18 kg/m3
mass density (450.01 K, 394.1 kPa, Gas): 35.895 ± 0.17 kg/m3
mass density (450.01 K, 913.4 kPa, Gas): 93.929 ± 0.2 kg/m3
mass density (450.01 K, 1478.4 kPa, Gas): 185.135 ± 0.4 kg/m3
mass density (450.01 K, 2042.6 kPa, Gas): 417.845 ± 0.77 kg/m3
mass density (450.01 K, 2500.6 kPa, Gas): 856.702 ± 0.45 kg/m3
mass density (450.01 K, 2998.2 kPa, Gas): 943.857 ± 0.18 kg/m3
mass density (450.01 K, 3997.1 kPa, Gas): 1026.46 ± 0.17 kg/m3
mass density (450.01 K, 4993.9 kPa, Gas): 1075.63 ± 0.18 kg/m3
mass density (450.01 K, 5983.6 kPa, Gas): 1111.42 ± 0.17 kg/m3
mass density (450.01 K, 8215.2 kPa, Gas): 1169.39 ± 0.17 kg/m3
mass density (450.01 K, 12010 kPa, Gas): 1235.17 ± 0.17 kg/m3
mass density (450.01 K, 15954 kPa, Gas): 1283.62 ± 0.18 kg/m3
mass density (450.01 K, 19948 kPa, Gas): 1321.88 ± 0.19 kg/m3
mass density (450.01 K, 29286 kPa, Gas): 1388.75 ± 11 kg/m3
mass density (460 K, 14282 kPa, Gas): 1237.17 ± 0.18 kg/m3
mass density (469.99 K, 2186.2 kPa, Gas): 306.462 ± 0.37 kg/m3
mass density (469.99 K, 2797.9 kPa, Gas): 560.84 ± 0.42 kg/m3
mass density (469.99 K, 3424.1 kPa, Gas): 779.472 ± 0.23 kg/m3
mass density (469.99 K, 6087.4 kPa, Gas): 1018.11 ± 0.15 kg/m3
mass density (470 K, 680 kPa, Gas): 61.543 ± 0.17 kg/m3
mass density (470 K, 1356.4 kPa, Gas): 142.264 ± 0.23 kg/m3
mass density (470 K, 4374.3 kPa, Gas): 910.538 ± 0.15 kg/m3
mass density (470 K, 7969.1 kPa, Gas): 1085.6 ± 0.16 kg/m3
mass density (470 K, 9768.9 kPa, Gas): 1131.11 ± 0.16 kg/m3
mass density (470 K, 11977 kPa, Gas): 1173.86 ± 0.17 kg/m3
mass density (470 K, 14031 kPa, Gas): 1205.91 ± 0.18 kg/m3
mass density (470 K, 16332 kPa, Gas): 1236.02 ± 0.18 kg/m3
speed of sound (475.01 K, 147.79 kPa, Gas): 110.98 ± 0.22 m/s
speed of sound (475.01 K, 349.5 kPa, Gas): 107.83 ± 0.21 m/s
speed of sound (475.01 K, 501.76 kPa, Gas): 105.38 ± 0.21 m/s
speed of sound (475.01 K, 501.77 kPa, Gas): 105.38 ± 0.21 m/s
speed of sound (475.01 K, 501.78 kPa, Gas): 105.38 ± 0.21 m/s
speed of sound (475.01 K, 501.8 kPa, Gas): 105.38 ± 0.21 m/s
speed of sound (475.01 K, 697.46 kPa, Gas): 102.08 ± 0.2 m/s
speed of sound (475.01 K, 898.52 kPa, Gas): 98.51 ± 0.2 m/s
speed of sound (475.01 K, 1150.9 kPa, Gas): 93.77 ± 0.19 m/s
speed of sound (475.01 K, 1296.2 kPa, Gas): 90.92 ± 0.19 m/s
speed of sound (475.01 K, 1496.6 kPa, Gas): 86.78 ± 0.18 m/s
speed of sound (475.01 K, 1685 kPa, Gas): 82.69 ± 0.18 m/s
speed of sound (500.01 K, 103.24 kPa, Gas): 114.77 ± 0.22 m/s
speed of sound (500.01 K, 301.45 kPa, Gas): 112.25 ± 0.22 m/s
speed of sound (500.01 K, 502.44 kPa, Gas): 109.63 ± 0.21 m/s
speed of sound (500.01 K, 502.55 kPa, Gas): 109.63 ± 0.21 m/s
speed of sound (500.01 K, 502.62 kPa, Gas): 109.63 ± 0.21 m/s
speed of sound (500.01 K, 502.7 kPa, Gas): 109.63 ± 0.21 m/s
speed of sound (500.01 K, 502.81 kPa, Gas): 109.64 ± 0.21 m/s
speed of sound (500.01 K, 503 kPa, Gas): 109.64 ± 0.21 m/s
speed of sound (500.01 K, 703.51 kPa, Gas): 106.95 ± 0.21 m/s
speed of sound (500.01 K, 893.84 kPa, Gas): 104.33 ± 0.21 m/s
speed of sound (500.01 K, 1100.4 kPa, Gas): 101.42 ± 0.2 m/s
speed of sound (500.01 K, 1100.8 kPa, Gas): 101.42 ± 0.2 m/s
speed of sound (500.01 K, 1308.1 kPa, Gas): 98.44 ± 0.2 m/s
speed of sound (500.01 K, 1503.6 kPa, Gas): 95.59 ± 0.19 m/s
speed of sound (500.01 K, 1746.5 kPa, Gas): 92 ± 0.19 m/s
speed of sound (500.02 K, 1746.7 kPa, Gas): 92 ± 0.19 m/s
speed of sound (500.02 K, 1746.9 kPa, Gas): 91.99 ± 0.19 m/s
